Laboratory results as given in the supplement of paper PMC10307832.

Key:
Experiment in all cases: relative viability (nuclei count vs DMSO), 5 days (fraction); higher = more cells survive
Bosutinib + Linsitinib = compound: COc1cc(Nc2c(C#N)cnc3cc(OCCCN4CCN(C)CC4)c(OC)cc23)c(Cl)cc1Cl [Bosutinib] + C[C@]1(O)C[C@@H](c2nc(-c3ccc4ccc(-c5ccccc5)nc4c3)c3c(N)nccn32)C1 [Linsitinib] (partner 1 µM)
Procedure, shortened: (§1)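 Dosing by pin tool came one day after lung cancer cell lines were seeded in 1536-well plates, using either one drug or a fixed anchor-drug dose plus five library-drug doses (not always all listed) in √10 steps. After 5 days, nuclei were counted on 4× images. Relative viability is treated-well nuclei count divided by vehicle-well nuclei count, and values are medians of duplicate plates.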

Bosutinib + Luminespib = compound: COc1cc(Nc2c(C#N)cnc3cc(OCCCN4CCN(C)CC4)c(OC)cc23)c(Cl)cc1Cl [Bosutinib] + CCNC(=O)c1noc(-c2cc(C(C)C)c(O)cc2O)c1-c1ccc(CN2CCOCC2)cc1 [Luminespib] (partner 0.01 µM)
Procedure, shortened: as §1

Bosutinib + Phenformin = compound: COc1cc(Nc2c(C#N)cnc3cc(OCCCN4CCN(C)CC4)c(OC)cc23)c(Cl)cc1Cl [Bosutinib] + N=C(N)NC(=N)NCCc1ccccc1 [Phenformin] (partner 250 µM)
Procedure, shortened: as §1

Bosutinib + Crizotinib = compound: COc1cc(Nc2c(C#N)cnc3cc(OCCCN4CCN(C)CC4)c(OC)cc23)c(Cl)cc1Cl [Bosutinib] + C[C@@H](Oc1cc(-c2cnn(C3CCNCC3)c2)cnc1N)c1c(Cl)ccc(F)c1Cl [Crizotinib] (partner 1 µM)
Procedure, shortened: as §1

Bosutinib + Pictilisib = compound: COc1cc(Nc2c(C#N)cnc3cc(OCCCN4CCN(C)CC4)c(OC)cc23)c(Cl)cc1Cl [Bosutinib] + CS(=O)(=O)N1CCN(Cc2cc3nc(-c4cccc5[nH]ncc45)nc(N4CCOCC4)c3s2)CC1 [Pictilisib] (partner 1 µM)
Procedure, shortened: as §1

Row | Cell Line | relative viability (Bosutinib + Linsitinib; first compound 0.01 µM) | relative viability (Bosutinib + Linsitinib; first compound 0.03162 µM) | relative viability (Bosutinib + Linsitinib; first compound 0.1 µM) | relative viability (Bosutinib + Linsitinib; first compound 1 µM) | relative viability (Bosutinib + Luminespib; first compound 0.01 µM) | relative viability (Bosutinib + Luminespib; first compound 0.03162 µM) | relative viability (Bosutinib + Luminespib; first compound 0.1 µM) | relative viability (Bosutinib + Luminespib; first compound 1 µM) | relative viability (Bosutinib + Phenformin; first compound 0.01 µM) | relative viability (Bosutinib + Phenformin; first compound 0.03162 µM) | relative viability (Bosutinib + Phenformin; first compound 0.1 µM) | relative viability (Bosutinib + Phenformin; first compound 1 µM) | relative viability (Bosutinib + Crizotinib; first compound 0.01 µM) | relative viability (Bosutinib + Crizotinib; first compound 0.03162 µM) | relative viability (Bosutinib + Crizotinib; first compound 0.1 µM) | relative viability (Bosutinib + Crizotinib; first compound 1 µM) | relative viability (Bosutinib + Pictilisib; first compound 0.01 µM) | relative viability (Bosutinib + Pictilisib; first compound 0.03162 µM) | relative viability (Bosutinib + Pictilisib; first compound 0.1 µM) | relative viability (Bosutinib + Pictilisib; first compound 1 µM)
1 | NCI-H647 | 0.913 | 1.11 | 1.21 | 0.817 | 0.202 | 0.284 | 0.159 | 0.183 | 0.606 | 0.494 | 0.436 | 0.348 | 1.03 | 1.23 | 1.07 | 0.687 | 0.508 | 0.436 | 0.432 | 0.372
2 | A-427 | 1.1 | 1.13 | 1.21 | 1.02 | 0.959 | 0.953 | 0.936 | 0.745 | 0.46 | 0.369 | 0.331 | 0.26 | 0.867 | 0.954 | 0.877 | 0.61 | 0.724 | 0.801 | 0.874 | 0.736
3 | LXF-289 | 0.948 | 0.971 | 0.946 | 1.01 | 0.718 | 0.674 | 0.702 | 0.689 | 0.508 | 0.515 | 0.521 | 0.514 | 0.829 | 0.823 | 0.79 | 0.898 | 0.815 | 0.865 | 0.818 | 0.778
4 | NCI-H727 | 0.231 | 0.386 | 0.305 | 0.182 | 0.233 | 0.477 | 0.55 | 0.504 | 0.695 | 0.371 | 0.42 | 0.407 | 0.725 | 0.885 | 0.701 | 0.378 | 0.447 | 0.435 | 0.297 | 0.282
5 | NCI-H1437 | 1.06 | 1.05 | 0.962 | 0.781 | 1.02 | 1.11 | 1.1 | 1.03 | 0.341 | 0.305 | 0.335 | 0.287 | 0.858 | 0.922 | 0.898 | 0.82 | 0.465 | 0.395 | 0.54 | 0.483
6 | RERF-LC-KJ | 0.893 | 0.885 | 0.845 | 0.838 | 1.22 | 1.21 | 1.18 | 1.15 | 0.407 | 0.427 | 0.42 | 0.387 | 0.863 | 0.827 | 0.846 | 0.88 | 0.544 | 0.581 | 0.576 | 0.459
7 | NCI-H1792 | 0.638 | 0.525 | 0.586 | 0.449 | 0.528 | 0.35 | 0.411 | 0.367 | 0.256 | 0.254 | 0.327 | 0.251 | 0.984 | 0.978 | 0.981 | 1 | 0.299 | 0.27 | 0.367 | 0.332
8 | HCC-44 | 0.696 | 0.619 | 0.674 | 0.559 | 1.18 | 1.07 | 1.08 | 0.627 | 0.247 | 0.278 | 0.185 | 0.388 | 0.809 | 0.782 | 0.764 | 0.755 | 0.723 | 0.548 | 0.587 | 0.632
9 | EPLC-272H | 1.18 | 1.25 | 1.31 | 1.14 | 0.149 | 0.932 | 0.649 | 0.278 | 0.275 | 0.353 | 0.331 | 0.335 | 0.904 | 1.17 | 1.05 | 0.818 | 0.375 | 0.293 | 0.36 | 0.426
10 | NCI-H358 | 0.787 | 0.753 | 0.602 | 0.594 | 0.28 | 0.331 | 0.372 | 0.439 | 0.387 | 0.309 | 0.32 | 0.357 | 0.516 | 0.512 | 0.505 | 0.647 | 0.407 | 0.368 | 0.363 | 0.379
11 | NCI-H596 | 0.941 | 0.978 | 1.16 | 0.831 | 0.935 | 0.938 | 0.959 | 1.1 | 0.883 | 0.668 | 0.721 | 0.646 | 0.923 | 0.884 | 0.989 | 0.743 | 0.398 | 0.369 | 0.405 | 0.392
12 | NCI-H322M | 0.964 | 0.954 | 1.03 | 0.789 | 0.771 | 0.754 | 0.793 | 0.333 | 0.865 | 0.777 | 0.846 | 0.449 | 1.08 | 0.949 | 0.968 | 1 | 0.469 | 0.495 | 0.525 | 0.485
13 | NCI-H1563 | 1.24 | 1.2 | 1.06 | 0.792 | 0.516 | 0.535 | 0.54 | 0.521 | 0.65 | 0.635 | 0.617 | 0.573 | 0.896 | 0.753 | 0.753 | 0.658 | 0.611 | 0.607 | 0.613 | 0.526
